Among the test systems are IGROV-1; T47D; COLO 205; NCI-H522; BT-549; MDA-MB-231; MDA-N; PC-3; OVCAR-5; SR; SF-295; NCI/ADR-RES; CAKI-1; DU-145; SW-620; MCF7; Hs-578T; M14; MDA-MB-435; DLD-1.
Common to all, as to assay: inhibition of tumour cell growth, NCI panel, 48 h

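How tested: cells in 96-well plates exposed to compound for 48 hours at five concentrations. The concentration for 50% growth inhibition is given as GI50.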 Active and inactive are the calls of the source. Rule as the data show it: active = GI50 up to about 1.1 µM and inactive = higher. Starred links: 1 amine or outer side, 2 acyl side, 3 side chain; linkers in the order of their positions; H or OH if unused. Positions of bridges follow the written chain, without caps; N, C: chain ends. Non-standard residues stand in square brackets, D forms with d. Residues, ends and D or L forms follow the SMILES beside them. ξ: configuration not given here. X11 = CCC(C)C(N[*:1])C(O)CC(=O)O[C@H](C(=O)C(C)C(=O)[*:2])C(C)C; X10 = O=C([C@@H]1CC(O)CN1[*:1])[*:2]; NMeY = CN[C@@H](Cc1ccc(O)cc1)C(=O)O; ξNMeL = CNC(CC(C)C)C(=O)O; ξT = CC(O)C(N)C(=O)O

For the molecule `CC(=O)c1nccc2c1c(C)nc1ccccc12`, the GI50 with IGROV-1 is 70 µM (inactive); in the test on T47D it was 43.4 µM (inactive); in the test on COLO 205 it was > 100 µM (inactive); in the test on NCI-H522 it was 47.5 µM (inactive); in the test with BT-549, 97.3 µM (inactive); with MDA-MB-231, 38.3 µM (inactive). The GI50 in the test with MDA-N was 53.6 µM (inactive); in the test with PC-3, 85.1 µM (inactive); with OVCAR-5 it was > 100 µM (inactive); in the test with SR, 26.4 µM (inactive); in the test on SF-295, 53.7 µM (inactive); in the test with NCI/ADR-RES, > 100 µM (inactive). The GI50 in the test on CAKI-1 was 30.3 µM (inactive); in the test with DU-145, > 100 µM (inactive); in the test on SW-620 it was > 100 µM (inactive); with MCF7, 39.7 µM (inactive); with Hs-578T, 30.3 µM (inactive); in the test with M14 it was > 100 µM (inactive). Besides, the GI50 in the test on MDA-MB-435 was > 100 µM (inactive).
Take `CSC1=Nc2ccccc2N(C)c2c1c(-c1ccccc1)nn2C`: the GI50 was 42.9 µM (inactive) in the test with IGROV-1; 9.79 µM (inactive) in the test on T47D; 38 µM (inactive) in the test with COLO 205; 7.4 µM (inactive) in the test on NCI-H522; 57.7 µM (inactive) in the test with BT-549; 45.2 µM (inactive) in the test on MDA-MB-231. Also, the GI50 with MDA-N was 27.7 µM (inactive); in the test with PC-3, 35.1 µM (inactive); in the test on OVCAR-5, > 100 µM (inactive); in the test with SR, 16.1 µM (inactive); in the test on SF-295, 4.94 µM (inactive); in the test with NCI/ADR-RES, 21.8 µM (inactive). Besides, the GI50 in the test on CAKI-1 was > 100 µM (inactive); in the test with DU-145, 91.6 µM (inactive); in the test with SW-620, 40.6 µM (inactive); in the test with MCF7, 23.8 µM (inactive); in the test on Hs-578T, 68.9 µM (inactive); in the test on M14, 41.9 µM (inactive). In addition, in the test with MDA-MB-435, the GI50 is 28.4 µM (inactive).
`C/C=C/C(C#N)O[Si](C)(C)C` (centres undefined): the GI50 in the test with IGROV-1, in the test on DLD-1, with COLO 205, in the test with NCI-H522, with OVCAR-5 and with SF-295 was > 100 µM (inactive) each time. The GI50 in the test with CAKI-1, with SW-620 and in the test with M14 was > 100 µM (inactive) throughout.
As for `COC(=O)C(=O)C(C(=O)OC)C(=O)C(=O)Nc1cc(Cl)c(Cl)cc1Cl` (centres undefined), the GI50 in the test with IGROV-1 was > 100 µM (inactive); in the test on DLD-1, 76.4 µM (inactive); with COLO 205, 29.4 µM (inactive); in the test on NCI-H522, > 100 µM (inactive); in the test on OVCAR-5, > 100 µM (inactive); in the test on SR, 24.8 µM (inactive). The GI50 in the test with SF-295, in the test with CAKI-1 and in the test with M14 was > 100 µM (inactive) throughout.
`COc1ccc(CCC2NCCc3cc(OC)c(OC)cc32)cc1` (centres undefined): the GI50 with DLD-1, in the test with NCI-H522, in the test with OVCAR-5, in the test with SF-295, in the test with CAKI-1 and in the test on SW-620 was > 100 µM (inactive) each time. Also, the GI50 in the test with M14 was > 100 µM (inactive).
For `CCOC(=O)c1ccc(C(=O)C(C(C)=O)C(=O)OC(C)(C)C)[nH]1` (centres undefined), the GI50 with IGROV-1, in the test with T47D, in the test with COLO 205, in the test on NCI-H522, in the test on BT-549 and in the test with MDA-MB-231 was > 100 µM (inactive) throughout. Further, the GI50 in the test on MDA-N, with PC-3, with OVCAR-5, in the test with SR, in the test on SF-295 and with NCI/ADR-RES was > 100 µM (inactive) throughout. For the same molecule, the GI50 in the test on CAKI-1, in the test on DU-145, in the test on SW-620, with MCF7, with Hs-578T and with M14 was > 100 µM (inactive) throughout. The GI50 in the test with MDA-MB-435 is > 100 µM (inactive).
`N#CN=C(N(Cc1ccccc1)Cc1ccccc1)N(Cc1ccccc1)Cc1ccccc1`: the GI50 was 3.48 µM (inactive) in the test on IGROV-1; 5.18 µM (inactive) with DLD-1; 11.7 µM (inactive) with COLO 205; 4.69 µM (inactive) with NCI-H522; 45.2 µM (inactive) in the test on OVCAR-5; > 100 µM (inactive) in the test with SF-295. For the same molecule, the GI50 in the test on CAKI-1 is 11.6 µM (inactive); with SW-620, 9.82 µM (inactive); with M14, 15.3 µM (inactive).
Take `O=C1/C(=C/c2ccccc2)CN(C(=O)C(Cl)(Cl)Cl)C/C1=C\c1ccccc1`: the GI50 in the test on IGROV-1 is 2.06 µM (inactive); with DLD-1 it was 1.96 µM (inactive); in the test with COLO 205 it was 2.25 µM (inactive); with NCI-H522, 2.13 µM (inactive); with OVCAR-5, 2.51 µM (inactive); in the test on SR it was 1.85 µM (inactive). Also, the results for the GI50 in the test with SF-295, in the test with SW-620 and with M14 were 1.82 µM (inactive), 0.546 µM (active) and 1.26 µM (inactive), respectively.
For `Cc1ccc(-c2nnc3s/c(=C\c4ccc(N(C)C)cc4)c(=O)n23)cc1`, the GI50 in the test on IGROV-1, in the test on DLD-1, in the test on COLO 205, with NCI-H522, in the test with OVCAR-5 and in the test with SF-295 was > 100 µM (inactive) in each case. Also, the GI50 in the test on CAKI-1, with SW-620 and in the test with M14 was > 100 µM (inactive) in each case.
On to `O=S(=O)(N/N=C/c1c(Cl)cccc1Cl)c1ccccc1`, for which the GI50 in the test with IGROV-1, with DLD-1, in the test on COLO 205, in the test with OVCAR-5, in the test on SR and with SF-295 was > 100 µM (inactive) each time. The GI50 with SW-620 and in the test on M14 was > 100 µM (inactive) each time.
As to `CC1=Nc2ccccc2C12C(c1ccccc1)C(c1ccccc1)C(=O)N1c3ccccc3CC12` (centres undefined), the GI50 with IGROV-1, in the test with DLD-1, in the test on COLO 205, in the test with NCI-H522, in the test on OVCAR-5 and with SR was > 100 µM (inactive) throughout. Also, the GI50 in the test with SF-295, with CAKI-1, in the test on SW-620 and with M14 was > 100 µM (inactive) throughout.
Consider `CCOC(=O)c1c(-c2ccccc2)c(C(OC(c2ccccc2)c2c(-c3ccccc3)c(C(=O)OCC)n3ccccc23)c2ccccc2)c2ccccn12` (centres undefined), for which the GI50 in the test on IGROV-1, in the test with DLD-1, with COLO 205, in the test on NCI-H522, with OVCAR-5 and with SR was > 100 µM (inactive) in each case. For the same molecule, the GI50 in the test with SF-295, in the test with CAKI-1, in the test on SW-620 and in the test on M14 was > 100 µM (inactive) throughout.
Regarding `CCOC(=O)c1nc2ccccc2n(CC)c1=O`, the GI50 in the test with IGROV-1, in the test on T47D, in the test on COLO 205, with NCI-H522, in the test with BT-549 and in the test on MDA-MB-231 was > 100 µM (inactive) in each case. Besides, the GI50 in the test with MDA-N, in the test with PC-3, with OVCAR-5, in the test with SR, with SF-295 and with NCI/ADR-RES was > 100 µM (inactive) in each case. The GI50 with CAKI-1, in the test on DU-145, with SW-620, in the test on MCF7, in the test with Hs-578T and in the test on M14 was > 100 µM (inactive) each time. In addition, the GI50 in the test on MDA-MB-435 is > 100 µM (inactive).
As for `Cc1ncc([N+](=O)[O-])n1CC[N+](C)([O-])CCCCn1ccnc1[N+](=O)[O-]` (centres undefined), the GI50 in the test with IGROV-1, in the test on T47D, in the test on COLO 205, in the test with NCI-H522, in the test on BT-549 and with MDA-MB-231 was > 100 µM (inactive) in each case. The GI50 in the test on MDA-N, with PC-3, with OVCAR-5, with SR, with SF-295 and in the test with NCI/ADR-RES was > 100 µM (inactive) in each case. Further, the GI50 in the test on CAKI-1, in the test on DU-145, in the test with SW-620, in the test on MCF7, in the test with Hs-578T and in the test on M14 was > 100 µM (inactive) throughout. Also, the GI50 with MDA-MB-435 is > 100 µM (inactive).
Consider `CCC(C)C1NC(=O)C(NC(=O)C(CC(C)C)N(C)C(=O)[C@@H]2CC(O)CN2)C(C)OC(=O)[C@H](Cc2ccc(OC)cc2)N(C)C(=O)[C@@H]2CCCN2C(=O)[C@H](CC(C)C)NC(=O)C(C)C(=O)[C@H](C(C)C)OC(=O)CC1O` (some centres undefined) (H-[X10][ξNMeL][ξT][X11]LP[NMeY](Me); ester 3-C), for which the GI50 in the test with IGROV-1 was 0.00272 µM (active); in the test with T47D it was 0.0035 µM (active); in the test with COLO 205 it was 0.00309 µM (active); in the test on NCI-H522 it was 0.00488 µM (active); in the test with BT-549, 0.00609 µM (active); with MDA-MB-231, 0.0224 µM (active). In addition, the GI50 with MDA-N was 0.00561 µM (active); in the test with PC-3, 0.0135 µM (active); in the test with OVCAR-5 it was 0.0275 µM (active); in the test with SR, 0.0148 µM (active); with SF-295, 0.0113 µM (active); in the test with NCI/ADR-RES, 1.45 µM (inactive). Further, the GI50 is 0.232 µM (active) in the test on CAKI-1; 0.0363 µM (active) with DU-145; 0.0108 µM (active) in the test on SW-620; < 0.001 µM (active) with MCF7; < 0.001 µM (active) in the test on Hs-578T; 0.00419 µM (active) in the test with M14. Besides, the GI50 in the test with MDA-MB-435 is 0.0102 µM (active).

The values are drawn from ChEMBL document CHEMBL1201862, “PubChem BioAssay data set” (2004).
